This note sets out measurements from PubChem BioAssay AID624344 (Sanford-Burnham Center for Chemical Genomics, 2012).

Calls of active or inactive are those of the source. No rule for the calls is given here.

A short description of test [1]: inhibitors of PAF-induced NFkB signaling in CF airway cells, dose response, cell-based, uHTS hits, panel, cytotoxicity readout (AID 624344). Particulars: CF bronchial epithelial cells, PAF-induced NFkB reporter inhibition; with PAF, mean of runs.
The next test has as its system Cytotoxicity. The description is as above. As to conditions: CF bronchial epithelial cells, mean of runs.

The term IC50 denotes the concentration that gives 50% inhibition. With `CCOC(=O)C1=C(CC)Nc2ccccc2N=C1NC(=O)Nc1ccc(Cl)c(Cl)c1`, the values for the IC50 (in test [1]; in the test with Cytotoxicity) were 2.74 µM and 6.06 µM, respectively.
The corresponding values for `COc1ccc(COC(=O)C2=C(C)NC(=O)NC2c2ccc(F)cc2)cc1` (configuration not stated) are 8.9 µM and 39.8 µM.
The corresponding values for `COc1cc(NC(=O)Cn2ncc(Cl)c(Cl)c2=O)c(C)cc1[N+](=O)[O-]` are 3.31 µM and 3.15 µM.
The corresponding values for `CCOc1ccc(-n2c(C)c(C(C)=O)c3cc(OC(C)=O)ccc32)cc1` are 0.925 µM and 44.5 µM.
For the compound `COc1cc2c(c(OC)c1OC)-c1ccc(SC)c(=O)cc1C(NC(=O)C(F)(F)F)CC2` (configuration not stated), the IC50 entry in test [1] was “inactive”. Further, the IC50 in the test on Cytotoxicity is > 79 µM (inactive).
Turning to `COC(=O)C1=C(C(=O)OC)[C@@H]2N(Cc3ccccc3)c3ccccc3[C@@]23C[C@@H](C(=O)OC)N(C(=O)c2ccc(Br)cc2)C3=N1`, the IC50 in test [1] was 5.67 µM; in the test with Cytotoxicity, 28.5 µM.
Regarding `O=C(c1cc([N+](=O)[O-])ccc1N1CCOCC1)N1CCN(c2ccccc2)CC1`, in test [1], the IC50 entry is “inactive”. In addition, in the test with Cytotoxicity, the IC50 was > 79 µM (inactive).
For the compound `Nc1cc2c(cc1Br)-c1ccccc1C2=NO`, the values for the half-inhibitory concentration (IC50) (in test [1]; in the test on Cytotoxicity) were 11.9 µM and 60.6 µM (inactive), respectively.
Regarding `O=C(Nc1cccc(Cl)c1)Nc1csc([N+](=O)[O-])c1`, the IC50 in test [1] was 4.12 µM; in the test with Cytotoxicity it was 0.788 µM.
On to `Nc1ncnc(Sc2ccc(Cl)cc2)c1[N+](=O)[O-]`, for which the results for the IC50 (in test [1]; with Cytotoxicity) were 4.13 µM and 11.6 µM, respectively.
The corresponding values for `COc1ccc(CNC(=O)C(c2ccc(O)cc2)N(Cc2ccco2)C(=O)c2snc(C(N)=O)c2N)cc1` (configuration not stated) are 4.58 µM and 5 µM.
`CC(=O)Oc1ccc(N(C(C)=O)S(=O)(=O)c2ccc(Cl)cc2)c2ccccc12`: the IC50 in test [1] is 7.37 µM; with Cytotoxicity, 22.8 µM.
The corresponding values for `CCN1CCN(Cc2ccc(NC(=O)c3ccc(C)c(NC(=O)C(=O)c4c[nH]c5ccccc45)c3)cc2C(F)(F)F)CC1` are 1.27 µM and 10.4 µM.
As for `Cc1ccc(Nc2nc3nonc3[nH]c2=O)cc1Cl`, the IC50 in test [1] is 4.7 µM; in the test with Cytotoxicity, 15.1 µM.
In the case of `CC(C)C[C@@H](CN1CCCC1CN1C(=S)NC[C@@H]1Cc1ccc(O)cc1)N1C[C@H](Cc2ccc(O)cc2)N(CC2CCCCCC2)C1=S` (some centres not stated), the IC50 is 7.98 µM in test [1] and 25.2 µM with Cytotoxicity.
For the compound `Cc1ccc2nc(SCC(=O)Nc3cc(C(F)(F)F)ccc3N3CCOCC3)[nH]c2c1`, in test [1], the IC50 entry was “inactive”. Also, the IC50 in the test on Cytotoxicity was 60.8 µM (inactive).
Regarding `COc1cccc(OC)c1C(=O)Nc1cc(C)nn1-c1nc2ccccc2[nH]1`, the IC50 in test [1] is 3.77 µM; in the test with Cytotoxicity, 10 µM.
For `CC(=O)c1cccc(NC(=O)Nc2cccnc2)c1`, the IC50 in test [1] is 0.608 µM; in the test on Cytotoxicity, 40.3 µM.
As to `c1cnc2ccc(-n3ccnc3)cc2c1`, the IC50 is 10.3 µM in test [1] and 60 µM (inactive) in the test on Cytotoxicity.
For the compound `COc1ccc(-c2cc(=O)oc3cc(O)ccc23)cc1`, the values for the IC50 (in test [1]; with Cytotoxicity) were 1.89 µM and 46.9 µM, respectively.
The corresponding values for `Cc1ccc(-n2nnnc2Sc2ccc(S(=O)(=O)NCCN(C)C)cc2[N+](=O)[O-])cc1` are 2.65 µM and 1.99 µM.
As for `O=C(Nc1ccc(Cl)cc1)c1nc[nH]c1C(=O)NCCCCNC(=O)c1[nH]cnc1C(=O)Nc1ccc(Cl)cc1`, the concentration for half-maximal inhibition (IC50) in test [1] was 1.05 µM; with Cytotoxicity, 1.11 µM.
As for `CCn1c(=O)c2c(cnn2C)c2ccccc21`, the IC50 is 2.18 µM in test [1] and 46.2 µM with Cytotoxicity.
`N#CC1c2ccccc2-n2nncc2CN1Cc1cc(Cl)cc(Cl)c1` (configuration not stated): the IC50 in test [1] was 2.16 µM; in the test on Cytotoxicity, 1.6 µM.
`O=c1c(O)c(-c2ccccc2)oc2cc(O)cc(O)c12`: the results for the half-inhibitory concentration (IC50) (in test [1]; with Cytotoxicity) were 3.27 µM and 54 µM (inactive), respectively.
Consider `CC(=O)OCCCNc1cc(Sc2ccc(Cl)cc2)c2nonc2c1[N+](=O)[O-]`, for which the results for the IC50 (in test [1]; with Cytotoxicity) were 13 µM and 11.1 µM, respectively.
On to `CCN1CCN(Cc2ccc(NC(=O)c3ccc(C)c(NC(=O)c4csc(-c5ccncc5)n4)c3)cc2C(F)(F)F)CC1`, for which the IC50 in test [1] was 6.08 µM; in the test on Cytotoxicity, 19.9 µM.
On to `O=[N+]([O-])c1ccc2ncnc(N3CCN(Cc4ccc5c(c4)OCO5)CC3)c2c1`, for which the IC50 in test [1] is 2.62 µM; in the test with Cytotoxicity, > 79 µM (inactive).
Regarding `NC(c1csc(NC(=O)Nc2cccc(Cl)c2)n1)c1ccccc1Cl` (configuration not stated), the IC50 in test [1] is 7.54 µM; in the test on Cytotoxicity, 21.7 µM.
On to `CN(CCC#N)C(=O)COC(=O)c1ccccc1C(=O)c1ccc(Cl)c([N+](=O)[O-])c1`, for which the IC50 in test [1] is 5.31 µM; in the test on Cytotoxicity, 16.5 µM.
Take `Nc1nccc(SCc2ccc(Cl)cc2Cl)n1`: the IC50 was 14.3 µM in test [1] and > 79 µM (inactive) with Cytotoxicity.
Consider `C[C@H]1Cn2cnc(C(=O)Nc3cccc(Cl)c3)c2C(=O)N1`, for which the IC50 in test [1] is 2.26 µM; in the test with Cytotoxicity, 25.5 µM.
For the compound `CCN1CCN(Cc2ccc(NC(=O)c3ccc(C)c(NC(=O)c4ccc5n[nH]nc5c4)c3)cc2C(F)(F)F)CC1`, the half-maximal inhibitory concentration (IC50) in test [1] was 2.58 µM; in the test on Cytotoxicity, 33.3 µM.
Regarding `CCOC(=O)c1ccc(NC(=O)Nc2nncs2)cc1`, the IC50 in test [1] was 9.39 µM; in the test on Cytotoxicity, 64 µM (inactive).
Take `CN(C)CCCN(C(=O)CCS(=O)(=O)c1ccccc1)c1nc2cc3c(cc2s1)OCO3`: the IC50 is 1.7 µM in test [1] and 7.47 µM in the test on Cytotoxicity.
The corresponding values for `COc1ccc(-c2cn[nH]c2-c2ccc(OCc3ccccc3)cc2O)cc1` are 3.7 µM and 16.7 µM.
The corresponding values for `CCCc1cc(-c2[nH]ncc2-c2ccc3c(c2)OCCCO3)c(O)cc1O` are 8.75 µM and 25.9 µM.
Take `COc1cc(C(=O)Nc2nnc(-c3sccc3C)s2)cc(OC)c1OC`: the IC50 result in test [1] was “inactive”. Also, the IC50 with Cytotoxicity is 4.33 µM.
For `Cc1cc(C)cc(NS(=O)(=O)c2ccc(-c3cnc(C4CC4)o3)cc2)c1`, the concentration for half-maximal inhibition (IC50) in test [1] was 12.1 µM; in the test with Cytotoxicity, 40.9 µM.
Consider `C[C@@H]1CN([C@H](C)CO)C(=O)c2cc(NC(=O)Nc3ccc(C(F)(F)F)cc3)ccc2O[C@H]1CN(C)S(=O)(=O)c1ccc(Cl)cc1`, for which the IC50 is 14.1 µM in test [1] and > 79 µM (inactive) in the test with Cytotoxicity.
Turning to `N#CC(C#N)c1ccnc2ccccc12`, the IC50 is 3.17 µM in test [1] and 28.3 µM in the test on Cytotoxicity.
In the case of `CC1(Cc2ccc(F)cc2)C(=O)Nc2ccc(-c3cccnc3)cc21` (configuration not stated), the IC50 is 2.54 µM in test [1] and 18.8 µM with Cytotoxicity.
In the case of `Cc1ccc2nc(C(F)(F)F)c(C#N)c(N)c2c1`, the results for the IC50 (in test [1]; in the test with Cytotoxicity) were 3.26 µM and 9.13 µM, respectively.
The corresponding values for `CCOc1cccc(-c2nnc3sc(C4CCCCC4)nn23)c1` are 2.88 µM and 33.3 µM.
Regarding `CC1CCc2c(sc3ncnc(N4CCOCC4)c23)C1` (configuration not stated), the IC50 in test [1] was 4.1 µM; with Cytotoxicity it was 20.4 µM.
Turning to `Cc1cccc(CS(=O)(=O)c2ncc(Cl)c(C(=O)NCc3ccccc3)n2)c1`, the results for the IC50 (in test [1]; in the test on Cytotoxicity) were 2.47 µM and 2.27 µM, respectively.
With `COc1cccc(CN(C)C(=O)C(CCSC)NS(=O)(=O)c2ccc3c(c2)OCCO3)c1OC` (configuration not stated), the IC50 is 3.4 µM in test [1] and 13.3 µM in the test on Cytotoxicity.
The corresponding values for `CCN(CC(=O)Nc1ccc(OC)cc1)C(=O)c1cc(-c2cccs2)nn1-c1ccccc1` are 5.29 µM and 7.56 µM.
The corresponding values for `CC(C)(C)OC(=O)NCC(=O)Oc1cc2oc(=O)cc(-c3ccccc3)c2cc1Cl` are 1.2 µM and 15.3 µM.
Take `Nc1ncnc2c1c(-c1ccc(Oc3ccccc3)cc1)cn2C1CCCC1`: the IC50 was 6.66 µM in test [1] and 11.3 µM in the test on Cytotoxicity.
Consider `CCCCn1nnnc1C(CCc1ccccc1)N1CCC(n2c(=O)[nH]c3ccccc32)CC1` (configuration not stated), for which the IC50 was 5.91 µM in test [1] and 12 µM in the test with Cytotoxicity.
With `O=C(CN1C(=O)CCC1=O)Nc1nc(-c2nc3ccccc3s2)cs1`, the IC50 in test [1] is 4.92 µM; in the test with Cytotoxicity, > 79 µM (inactive).
For `Cc1c(C(=O)c2cccc3ccccc23)c2cccc3c2n1[C@H](CN1CCOCC1)CO3`, the IC50 in test [1] is 7.9 µM; in the test on Cytotoxicity, 16.3 µM.
Turning to `COc1ccc(Oc2cc(NC(=O)c3nn(C)cc3[N+](=O)[O-])cc([N+](=O)[O-])c2)cc1`, the concentration for half-maximal inhibition (IC50) in test [1] is 3.27 µM; with Cytotoxicity, 1.69 µM.
The corresponding values for `CCN(c1ccc(OC)cc1)c1ncnc2nc[nH]c12` are 3.62 µM and > 79 µM (inactive).
As for `CCCC1/C(=N/O)CC(c2ccccc2)NC1c1ccccc1` (configuration not stated), the IC50 in test [1] is 5.52 µM; in the test with Cytotoxicity it was 6.23 µM.
`Cc1ccc(-c2cc(C(=O)N(C)Cc3cnn(C)c3C)c3cc(Br)ccc3n2)cc1`: the values for the IC50 (in test [1]; with Cytotoxicity) were 5.57 µM and 14.4 µM, respectively.
Consider `CC(=O)Nc1ccc(-c2ccnc3c2CC(C(=O)NCc2ccco2)O3)cc1` (configuration not stated), for which the IC50 result in test [1] was “inactive”. Moreover, the IC50 in the test with Cytotoxicity is > 79 µM (inactive).
Turning to `CCc1nccn1C(=O)c1cnn2c(C(F)F)cc(-c3ccc(C)cc3)nc12`, the IC50 in test [1] is 3.86 µM; with Cytotoxicity, 6.64 µM.
Turning to `CC(=O)Nc1ccc(S(=O)(=O)N2c3ccccc3C(C)=CC2(C)C)cc1`, in test [1], the IC50 entry is “inactive”. In the test with Cytotoxicity, the IC50 is 44.5 µM.
With `COc1ccc(-c2ccccc2[C@H]2[C@@H]3C=CC[C@@H](C)[C@@H]3C(=O)N2Cc2ccccc2)cc1`, the IC50 in test [1] is 13.6 µM; in the test on Cytotoxicity, 19.6 µM.
Take `O=C(CC12CC3CC(CC(C3)C1)C2)Nc1nncs1`: the IC50 result in test [1] was “inactive”. Besides, the IC50 in the test on Cytotoxicity was 54.5 µM (inactive).
On to `Clc1ccccc1C1=Nn2c(nnc2-c2ccncc2)SC1`, for which the concentration for half-maximal inhibition (IC50) in test [1] was 0.624 µM; with Cytotoxicity it was > 79 µM (inactive).
The corresponding values for `CC(=O)OC1CCC2(C)C(CCC3C4CC=C(C(C)=O)C4(C)OC(=O)CC32)C1` (configuration not stated) are 0.972 µM and 5.07 µM.
The corresponding values for `CC1(C)CC(=O)C(C2C3=C(CC(C)(C)CC3=O)Oc3c(Br)cc(Br)cc32)=C(O)C1` (configuration not stated) are 6.19 µM and 15.1 µM.
With `COc1ccc2c(=O)cc(-c3ccncc3)oc2c1OC`, the IC50 is 3.97 µM in test [1] and 13.6 µM in the test with Cytotoxicity.
